Test results reported in ChEMBL document CHEMBL5465560, “Selectivity Literature for EUbOPEN Chemogenomic Library” (2024).
Blank lines part the entries; values can stand above or below the compound they belong to.

Legend:
[1] = biological target: Dual specificity tyrosine-phosphorylation-regulated kinase 1B (Homo sapiens, UniProt Q9Y463); experiment: Selectivity interaction (Ambit KINOMEscan and KiNATiv profiling in Jurkat cells) EUB0000090b DYRK1B; format: cell-based; conditions: at 1 µM
[2] = biological target: Serine/threonine-protein kinase PAK 2 (Homo sapiens) (UniProt Q13177); experiment: Selectivity interaction (KinomeScan (DiscoverX)) EUB0000655a PAK2; conditions: at 10 µM
[3] = biological target: Serine/threonine-protein kinase PAK 2 (Homo sapiens) (UniProt Q13177); experiment: Selectivity interaction (KinomeScan (DiscoverX)) EUB0000618a PAK2; conditions: at 10 µM
[4] = biological target: Dual specificity protein kinase CLK1 (Homo sapiens, UniProt P49759); experiment: Selectivity interaction (KinomeScan (DiscoverX)) EUB0000618a CLK1; conditions: at 10 µM
[5] = biological target: Mitogen-activated protein kinase 8 (Homo sapiens, UniProt P45983); experiment: Selectivity interaction (ActivX KiNativ screen (ex vivo kinase selectivity in human PBMCs)) EUB0001619a MAPK8; format: cell-based; conditions: PBMC, at 1 µM
[6] = biological target: Calcium/calmodulin-dependent protein kinase type II subunit delta (Homo sapiens) (UniProt Q13557); experiment: Selectivity interaction (Kinase panel (DSF assay)) EUB0001558a CAMK2D
[7] = biological target: T1, Myosin-IIIb (Homo sapiens) (UniProt Q8WXR4); experiment: Selectivity interaction (KinomeScan (DiscoverX)) EUB0000045b MYO3B
T1 sequence (whole entry): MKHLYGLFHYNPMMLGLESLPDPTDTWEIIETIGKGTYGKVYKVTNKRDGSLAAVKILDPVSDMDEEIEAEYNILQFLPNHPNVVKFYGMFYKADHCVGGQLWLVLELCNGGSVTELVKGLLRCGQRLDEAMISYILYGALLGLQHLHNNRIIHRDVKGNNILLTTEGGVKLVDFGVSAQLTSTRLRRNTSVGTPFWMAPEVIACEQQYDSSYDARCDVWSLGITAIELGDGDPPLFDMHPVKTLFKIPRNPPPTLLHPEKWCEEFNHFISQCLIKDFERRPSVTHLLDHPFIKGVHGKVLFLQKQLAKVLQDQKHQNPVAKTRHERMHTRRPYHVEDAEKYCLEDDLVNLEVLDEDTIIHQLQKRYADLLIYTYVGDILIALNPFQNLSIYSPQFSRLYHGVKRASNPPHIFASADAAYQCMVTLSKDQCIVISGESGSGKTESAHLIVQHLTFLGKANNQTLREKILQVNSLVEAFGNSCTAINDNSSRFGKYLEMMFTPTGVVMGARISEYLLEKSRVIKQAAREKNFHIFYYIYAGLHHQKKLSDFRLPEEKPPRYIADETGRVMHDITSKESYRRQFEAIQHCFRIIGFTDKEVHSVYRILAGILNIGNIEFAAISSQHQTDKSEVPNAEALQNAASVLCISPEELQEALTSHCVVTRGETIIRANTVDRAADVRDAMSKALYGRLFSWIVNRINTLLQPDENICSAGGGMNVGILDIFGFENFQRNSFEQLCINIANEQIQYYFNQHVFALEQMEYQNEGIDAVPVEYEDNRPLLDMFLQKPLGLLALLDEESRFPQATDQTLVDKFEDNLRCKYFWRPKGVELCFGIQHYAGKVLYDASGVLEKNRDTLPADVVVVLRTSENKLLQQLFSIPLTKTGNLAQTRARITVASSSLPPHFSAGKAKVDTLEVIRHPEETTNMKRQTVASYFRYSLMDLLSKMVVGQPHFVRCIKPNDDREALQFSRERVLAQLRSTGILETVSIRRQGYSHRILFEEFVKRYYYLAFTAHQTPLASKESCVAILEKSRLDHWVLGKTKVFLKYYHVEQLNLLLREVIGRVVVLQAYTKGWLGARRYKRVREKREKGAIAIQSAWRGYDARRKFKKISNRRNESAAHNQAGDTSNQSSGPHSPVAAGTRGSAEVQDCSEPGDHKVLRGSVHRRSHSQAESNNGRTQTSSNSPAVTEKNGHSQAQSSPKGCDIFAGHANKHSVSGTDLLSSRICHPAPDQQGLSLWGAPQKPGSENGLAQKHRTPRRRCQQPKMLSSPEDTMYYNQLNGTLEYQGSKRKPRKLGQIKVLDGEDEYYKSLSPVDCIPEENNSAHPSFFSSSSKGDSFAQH

[8] = biological target: T2, Aurora kinase A (Homo sapiens) (UniProt O14965); experiment: Selectivity interaction (ActivX KiNativ screen (kinase selectivity in THP-1 cell lysates)) EUB0000639a STK6; format: subcellular; conditions: lysate, at 1 µM
T2 sequence (whole entry): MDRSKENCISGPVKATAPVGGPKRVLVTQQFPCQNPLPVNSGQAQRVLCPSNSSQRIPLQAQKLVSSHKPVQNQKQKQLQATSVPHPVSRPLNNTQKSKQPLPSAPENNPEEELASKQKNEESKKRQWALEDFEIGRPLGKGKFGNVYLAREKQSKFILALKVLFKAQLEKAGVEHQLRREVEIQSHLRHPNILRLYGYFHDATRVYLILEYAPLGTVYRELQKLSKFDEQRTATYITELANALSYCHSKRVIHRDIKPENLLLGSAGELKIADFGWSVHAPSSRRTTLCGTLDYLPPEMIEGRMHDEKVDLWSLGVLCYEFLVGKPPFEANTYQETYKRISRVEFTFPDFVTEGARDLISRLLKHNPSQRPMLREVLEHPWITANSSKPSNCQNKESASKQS

[9] = biological target: Wee1-like protein kinase 2 (Homo sapiens) (UniProt P0C1S8); experiment: Selectivity interaction (KinomeScan (DiscoverX)) EUB0001049a WEE2; conditions: at 1 µM
[10] = biological target: T3, Dual specificity mitogen-activated protein kinase kinase 6 (Homo sapiens) (UniProt P52564); experiment: Selectivity interaction (KinomeScan (DiscoverX)) EUB0001049a MAP2K6; conditions: at 1 µM
T3 sequence (whole entry): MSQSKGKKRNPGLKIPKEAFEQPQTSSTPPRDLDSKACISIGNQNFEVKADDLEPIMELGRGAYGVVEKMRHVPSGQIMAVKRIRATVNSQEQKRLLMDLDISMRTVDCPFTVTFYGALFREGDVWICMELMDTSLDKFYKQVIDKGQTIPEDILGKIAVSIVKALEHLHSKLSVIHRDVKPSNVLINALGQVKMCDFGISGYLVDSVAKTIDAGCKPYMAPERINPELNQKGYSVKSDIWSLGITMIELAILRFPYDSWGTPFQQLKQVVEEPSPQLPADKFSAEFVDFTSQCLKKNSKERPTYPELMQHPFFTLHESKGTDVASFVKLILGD

Chain of Serine/threonine-protein kinase PAK 2 (Homo sapiens) (Q13177 whole entry): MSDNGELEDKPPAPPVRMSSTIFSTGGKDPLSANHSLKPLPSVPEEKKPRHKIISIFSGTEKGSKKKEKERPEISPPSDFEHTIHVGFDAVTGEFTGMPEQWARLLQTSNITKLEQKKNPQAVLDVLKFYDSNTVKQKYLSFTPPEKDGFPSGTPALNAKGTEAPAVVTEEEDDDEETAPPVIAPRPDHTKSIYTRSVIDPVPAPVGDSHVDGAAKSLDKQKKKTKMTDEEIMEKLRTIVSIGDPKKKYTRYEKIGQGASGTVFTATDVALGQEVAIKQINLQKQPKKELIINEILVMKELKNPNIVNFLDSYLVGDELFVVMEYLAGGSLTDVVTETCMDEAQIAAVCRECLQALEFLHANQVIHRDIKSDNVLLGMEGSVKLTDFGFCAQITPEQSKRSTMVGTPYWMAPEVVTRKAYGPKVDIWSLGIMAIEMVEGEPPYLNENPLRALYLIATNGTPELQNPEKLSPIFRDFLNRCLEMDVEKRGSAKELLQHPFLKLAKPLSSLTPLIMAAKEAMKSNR
Chain of Dual specificity tyrosine-phosphorylation-regulated kinase 1B (Q9Y463 whole entry, looked up): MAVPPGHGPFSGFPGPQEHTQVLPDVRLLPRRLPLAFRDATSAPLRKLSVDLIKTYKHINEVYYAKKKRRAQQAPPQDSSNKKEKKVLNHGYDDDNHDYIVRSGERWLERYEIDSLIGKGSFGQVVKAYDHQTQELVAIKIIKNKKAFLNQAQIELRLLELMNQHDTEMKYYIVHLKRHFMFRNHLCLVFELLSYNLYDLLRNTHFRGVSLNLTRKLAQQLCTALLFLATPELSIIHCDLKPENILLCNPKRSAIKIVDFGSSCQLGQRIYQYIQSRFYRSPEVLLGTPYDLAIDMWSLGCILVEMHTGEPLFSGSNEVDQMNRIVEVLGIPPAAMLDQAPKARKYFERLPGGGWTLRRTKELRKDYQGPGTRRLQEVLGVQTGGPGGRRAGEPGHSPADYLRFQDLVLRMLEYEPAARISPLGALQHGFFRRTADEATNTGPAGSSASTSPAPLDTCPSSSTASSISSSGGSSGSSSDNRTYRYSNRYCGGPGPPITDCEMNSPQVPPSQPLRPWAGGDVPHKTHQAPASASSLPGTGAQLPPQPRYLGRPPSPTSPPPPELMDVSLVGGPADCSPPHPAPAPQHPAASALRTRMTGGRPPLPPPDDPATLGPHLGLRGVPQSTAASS
Chain of Wee1-like protein kinase 2 (Homo sapiens) (P0C1S8 whole entry, looked up): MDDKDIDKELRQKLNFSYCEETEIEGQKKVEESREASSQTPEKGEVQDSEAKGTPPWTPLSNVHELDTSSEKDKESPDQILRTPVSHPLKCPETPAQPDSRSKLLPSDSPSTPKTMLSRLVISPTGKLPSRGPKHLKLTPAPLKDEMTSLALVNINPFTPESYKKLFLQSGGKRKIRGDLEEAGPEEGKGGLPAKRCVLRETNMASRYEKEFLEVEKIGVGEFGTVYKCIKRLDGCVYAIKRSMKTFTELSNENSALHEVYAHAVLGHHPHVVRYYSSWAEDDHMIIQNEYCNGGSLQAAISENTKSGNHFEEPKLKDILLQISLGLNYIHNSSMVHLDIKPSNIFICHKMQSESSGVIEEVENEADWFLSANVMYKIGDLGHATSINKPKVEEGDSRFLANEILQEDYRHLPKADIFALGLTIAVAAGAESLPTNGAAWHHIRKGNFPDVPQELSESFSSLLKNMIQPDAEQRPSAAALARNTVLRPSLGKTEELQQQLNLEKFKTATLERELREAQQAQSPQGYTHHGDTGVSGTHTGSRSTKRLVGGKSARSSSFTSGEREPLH
Chain of Mitogen-activated protein kinase 8 (P45983 whole entry): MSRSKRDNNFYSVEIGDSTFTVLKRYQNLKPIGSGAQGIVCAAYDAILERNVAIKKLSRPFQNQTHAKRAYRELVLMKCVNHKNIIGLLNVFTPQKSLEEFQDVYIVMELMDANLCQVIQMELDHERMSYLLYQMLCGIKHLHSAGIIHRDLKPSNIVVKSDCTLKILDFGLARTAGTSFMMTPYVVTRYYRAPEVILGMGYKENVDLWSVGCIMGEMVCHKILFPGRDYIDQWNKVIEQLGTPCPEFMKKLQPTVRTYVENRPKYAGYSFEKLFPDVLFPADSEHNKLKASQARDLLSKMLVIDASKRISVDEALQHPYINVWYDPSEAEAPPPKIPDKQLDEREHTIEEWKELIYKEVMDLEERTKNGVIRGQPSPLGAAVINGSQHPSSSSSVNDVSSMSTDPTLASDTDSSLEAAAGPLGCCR
Chain of Calcium/calmodulin-dependent protein kinase type II subunit delta (Homo sapiens) (Q13557 whole entry): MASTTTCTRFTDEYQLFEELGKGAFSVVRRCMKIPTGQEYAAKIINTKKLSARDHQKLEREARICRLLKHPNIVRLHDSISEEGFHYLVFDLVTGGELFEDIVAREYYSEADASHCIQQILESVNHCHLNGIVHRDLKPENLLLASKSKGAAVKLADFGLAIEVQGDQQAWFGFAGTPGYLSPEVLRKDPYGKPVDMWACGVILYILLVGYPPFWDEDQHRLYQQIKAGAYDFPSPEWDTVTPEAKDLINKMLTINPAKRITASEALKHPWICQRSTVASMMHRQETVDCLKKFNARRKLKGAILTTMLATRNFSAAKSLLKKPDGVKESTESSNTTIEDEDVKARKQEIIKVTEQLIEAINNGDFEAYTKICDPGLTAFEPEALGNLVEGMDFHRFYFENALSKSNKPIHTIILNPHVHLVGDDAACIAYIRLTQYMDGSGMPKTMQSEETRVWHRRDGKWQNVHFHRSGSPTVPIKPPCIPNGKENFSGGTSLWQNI
Chain of Dual specificity protein kinase CLK1 (P49759 whole entry, looked up): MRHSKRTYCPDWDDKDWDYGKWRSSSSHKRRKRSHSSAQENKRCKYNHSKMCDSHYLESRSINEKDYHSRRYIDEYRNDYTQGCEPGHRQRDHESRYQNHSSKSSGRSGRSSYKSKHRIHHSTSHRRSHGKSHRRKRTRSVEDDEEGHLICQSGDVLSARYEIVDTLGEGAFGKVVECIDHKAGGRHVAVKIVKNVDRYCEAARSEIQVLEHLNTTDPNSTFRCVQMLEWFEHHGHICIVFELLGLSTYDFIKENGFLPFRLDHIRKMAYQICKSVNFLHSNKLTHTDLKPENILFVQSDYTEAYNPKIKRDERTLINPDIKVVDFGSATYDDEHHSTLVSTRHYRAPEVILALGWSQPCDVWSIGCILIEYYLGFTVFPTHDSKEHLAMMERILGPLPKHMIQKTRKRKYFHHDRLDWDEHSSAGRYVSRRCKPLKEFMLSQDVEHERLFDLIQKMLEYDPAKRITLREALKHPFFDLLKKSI

Structure (SMILES): CN(C)C/C=C/C(=O)Nc1ccc(C(=O)N2CCCC(Nc3ncc(Cl)c(-c4c[nH]c5ccccc45)n3)C2)cc1 (stereo unspecified)
% of control [1]: 6.1%

Structure (SMILES): CN(C)CCOc1ccc(-c2nc(-c3ccncc3)c(-c3ccc4c(c3)CC/C4=N\O)[nH]2)cc1
% of control [2]: 85%

Structure (SMILES): O[C@H]1CC[C@H](Nc2ncc3nc(Nc4c(F)cc(F)cc4F)n([C@H]4CCOC4)c3n2)CC1
% of control [3]: 100%
% of control [4]: 79%

Structure (SMILES): N#Cc1cccc(-c2c[nH]c3ncnc(N4CCOCC4)c23)c1
% of inhibition [5]: 5%

Structure (SMILES): CC(C)(O)[C@H](F)CN1Cc2cc(NC(=O)c3cnn4cccnc34)c(N3CCOCC3)cc2C1=O
dTM [6]: 0.3 K

Structure (SMILES): C=CC(=O)Nc1cc(-n2c(=O)ccc3cnc4ccc(-c5ccc(NS(C)(=O)=O)cc5)cc4c32)ccc1C
% of control ([7]; at 1 µM): 92%
% of control ([7]; at 10 µM): 100%

% of inhibition [8]: 17.4%
Structure (SMILES): CC[C@@H]1[C@H](F)C(=O)N[C@@H]1COc1nccc2cc(C(N)=O)c(OC)cc12 [ZIMLOVISERTIB]

Structure (SMILES): COc1cc(Nc2nc(C)cc(-c3cnn4nc(OC)ccc34)n2)cc(C(F)(F)F)c1
% of control [9]: 100%
% of control [10]: 100%
